Details: 343.15 K, Liquid, Vibrating tube method

CCCCCCCC(=O)OCC(COC(=O)CCCCCCC)(COC(=O)CCCCCCC)COC(=O)CCCCCCC [pentaerythritol tetraoctanoate]
Details | mass density [kg/m3]
665.9 kPa | 926.5
687.8 kPa | 926.6
706.6 kPa | 926.4
730 kPa | 926.5
755.6 kPa | 926.6
778.5 kPa | 926.5
802.8 kPa | 926.6
832.2 kPa | 926.4
862.6 kPa | 926.6
881.1 kPa | 926.6
902.3 kPa | 926.7
920.9 kPa | 926.6
940.4 kPa | 926.6
964.7 kPa | 926.7
985.7 kPa | 926.6
1011.4 kPa | 926.8
1034.9 kPa | 926.7
1063.7 kPa | 926.8
1088.9 kPa | 926.8
1119.9 kPa | 926.8
1147.2 kPa | 926.8
1182.1 kPa | 926.7
1218.2 kPa | 926.8
1249.3 kPa | 926.9
1282.5 kPa | 926.8
1323.6 kPa | 927.1
1359.7 kPa | 927
1406.5 kPa | 926.9
1447.6 kPa | 927
1490.5 kPa | 927
1543.8 kPa | 927.1
1590.8 kPa | 927.1
1650.5 kPa | 927.1
1702.4 kPa | 927.2
1763.5 kPa | 927.2
1794.1 kPa | 927.3
1881.2 kPa | 927.4
1905.6 kPa | 927.4
1913.3 kPa | 927.3
1919.7 kPa | 927.4
1926.3 kPa | 927.3
1934.1 kPa | 927.4
1941 kPa | 927.5
1952.7 kPa | 927.5
1970.2 kPa | 927.3
2032.8 kPa | 927.4
2121.2 kPa | 927.7
2203.7 kPa | 927.5
2331.4 kPa | 927.7
2366.8 kPa | 927.7
2379.6 kPa | 927.9
2393.5 kPa | 927.8
2403.9 kPa | 927.9
2415.5 kPa | 927.8
2424.6 kPa | 927.8
2434.6 kPa | 927.8
2446.8 kPa | 927.8
2457.7 kPa | 927.7
2468.6 kPa | 927.9
2480.2 kPa | 927.8
2493.9 kPa | 927.9
2505.4 kPa | 927.9
2519.4 kPa | 927.9
2531.1 kPa | 927.9
2543 kPa | 927.9
2555.2 kPa | 927.8
2569.2 kPa | 927.9
2581.3 kPa | 928
2593.5 kPa | 927.9
2608.2 kPa | 928
2620.9 kPa | 927.9
2633.4 kPa | 928.1
2646.4 kPa | 927.9
2659 kPa | 928
2674.6 kPa | 928
2687.8 kPa | 928
2700.8 kPa | 928
2713.8 kPa | 927.9
2729.6 kPa | 928.1
2743.3 kPa | 928
2756.7 kPa | 927.9
2773 kPa | 927.9
2786.3 kPa | 928.1
2800.4 kPa | 928
2814.8 kPa | 928.1
2830 kPa | 928.1
2846.9 kPa | 928.2
2861.3 kPa | 928.1
2875.3 kPa | 928.1
2892.3 kPa | 928.1
2907 kPa | 928.1
2921.6 kPa | 928.2
2936.8 kPa | 928.1
2955 kPa | 928.2
2969.8 kPa | 928.1
2988.2 kPa | 928.2
3003.6 kPa | 928.1
3019.4 kPa | 928.3
3035.5 kPa | 928.4
3053.7 kPa | 928.2
3070.2 kPa | 928.3
3085.9 kPa | 928.2
3102.6 kPa | 928.4
3121.8 kPa | 928.3
3138.3 kPa | 928.4
3154.9 kPa | 928.4
3175.2 kPa | 928.3
3191.8 kPa | 928.3
3209 kPa | 928.3
3229.6 kPa | 928.4
3247 kPa | 928.4
3264.6 kPa | 928.4
3285.8 kPa | 928.4
3303.6 kPa | 928.5
3321.5 kPa | 928.5
3343 kPa | 928.5
3361.5 kPa | 928.6
3379.9 kPa | 928.5
3398.8 kPa | 928.5
3421.3 kPa | 928.5
3440 kPa | 928.4
3463.2 kPa | 928.4
3482.8 kPa | 928.5
3502.4 kPa | 928.4
3522.3 kPa | 928.7
3542.4 kPa | 928.6
3566.7 kPa | 928.7
3583.3 kPa | 928.6
3608.1 kPa | 928.7
3632.7 kPa | 928.7
3653.7 kPa | 928.6
3674.8 kPa | 928.8
3695.9 kPa | 928.7
3721.9 kPa | 928.7
3743.4 kPa | 928.8
3765.8 kPa | 928.7
3792.8 kPa | 928.8
3815.3 kPa | 928.8
3838 kPa | 928.8
3861 kPa | 928.9
3888.6 kPa | 929
3911.4 kPa | 929
3935 kPa | 928.8
3959.2 kPa | 928.9
3987.5 kPa | 929
4012.2 kPa | 929
4037.5 kPa | 928.9
4064.5 kPa | 929

Source: the NIST ThermoML archive (doi:10.1021/je060271a)
